Test system: Human skin fibroblasts on collagen-coated surfaces
Format: cell-based
Settings: 0.5 mg/ml peptide; serum-free DMEM; 60 minutes
Experimental: The incubations contained peptides at the concentrations indicated and cell spreading was measured after 60 minute Method: Falcon 35 mm tissue culture dishes were coated with collagen (Vitrogen 100; 50 ug/ml in DMEM) for 15 minutes at 37° C. and counter-coated for 15 minutes with 1 mg/ml heat denatured bovine serum albumin. Human skin fibroblasts in DMEM with peptides added at the concentrations indicated were incubated on the substrata for 60 minutes at 37°. The end of the incubations, the cells were fixed and projected cell surface areas were measured by superimposing the microscopic field on the digitizing tablet of a Zidas image analyzer. Data presented are averages±95% confidence limits based on measurement of 50-100 cells. See reference 21 for complete details.

## N=C(N)NCCC[C@H](NC(=O)CN)C(=O)NCC(=O)N[C@@H](CC(=O)O)C(=O)N[C@@H](CO)C(=O)N1CCC[C@H]1C(=O)O [GRGDSP, Gly--Arg--Gly--Asp--Ser--Pro]
  inhibition of cell spreading on collagen-coated surfaces: about 50%

From patent US4957902A, “Peptide inhibitors of wound contraction” (Board of Regents, the University of Texas System, priority 1988, dated 1990)
